The target of experiment [1] is T1, 5-HT2C (Homo sapiens, UniProt P28335).
T1 construct: NIMH PDSP (screening service)
Put plainly: NIMH PDSP radioligand binding, 5-HT2C. Particulars: radioligand [3H]mesulergine.

Experiment [2] concerns the target T2, 5-HT1A (Homo sapiens, UniProt P08908).
T2 construct: purchased NIMH Psychoactive Drug Screening Program (PDSP)
The experiment can be described thus: NIMH PDSP radioligand binding, 5-HT1A. The following applies: radioligand [3H]8-OH-PDAT, n=4.

Experiment [3] deals with T3, DOR (Homo sapiens, UniProt P41143).
T3 construct: purchased NIMH Psychoactive Drug Screening Program (PDSP)
The experiment can be described thus: NIMH PDSP radioligand binding, DOR. Particulars: radioligand [3H]DADLE, n=4.

The target of experiment [4] is T4, hGAT3 (Homo sapiens, UniProt P48066).
T4 construct: expressed in transfected cells
T4 sequence (P48066 1-632): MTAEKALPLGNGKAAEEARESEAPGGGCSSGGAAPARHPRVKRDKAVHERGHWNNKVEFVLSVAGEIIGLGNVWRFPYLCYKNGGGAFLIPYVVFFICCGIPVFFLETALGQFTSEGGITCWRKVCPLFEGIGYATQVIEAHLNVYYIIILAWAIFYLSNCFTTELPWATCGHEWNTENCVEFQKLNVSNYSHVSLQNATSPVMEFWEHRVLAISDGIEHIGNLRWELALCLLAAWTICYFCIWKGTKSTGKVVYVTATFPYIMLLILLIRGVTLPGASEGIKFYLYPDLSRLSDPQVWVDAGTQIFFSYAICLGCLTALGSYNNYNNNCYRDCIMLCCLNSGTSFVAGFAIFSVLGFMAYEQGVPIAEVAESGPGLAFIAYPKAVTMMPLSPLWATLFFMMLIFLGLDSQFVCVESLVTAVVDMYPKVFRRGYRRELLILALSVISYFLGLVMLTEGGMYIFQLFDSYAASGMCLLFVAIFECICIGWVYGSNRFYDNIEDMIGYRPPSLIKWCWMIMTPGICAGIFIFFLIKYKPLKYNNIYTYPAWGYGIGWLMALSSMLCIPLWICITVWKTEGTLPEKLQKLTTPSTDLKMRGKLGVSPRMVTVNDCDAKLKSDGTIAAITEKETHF
The experiment can be described thus: [3H]GABA uptake at hGAT3 stably expressed in CHO cells. The following applies: N=3. It counts as cell-based. On the procedure:
(§1) The HEK-293 and Flp-In CHO cell lines stably expressing mouse (m) and human (h) GATs, respectively, have been described previously and were cultured accordingly. The tsA201 cell line was used for transient expression while the MDCK II cell line express BGT1 endogenously. Both cell lines were cultured as described. tsA201 cells were transfected with DNA constructs (8 μg per 10 cm dish if not otherwise mentioned) using 40 μL PolyFect transfection reagent according to the manufacturer’s protocol (Qiagen, Venlo, Netherlands). The DNA constructs encoding hBGT1, hGAT1-3 [36], the mutated constructs hBGT1 Q299 and hGAT3 L314Q described previously, and hBGT Y453A were synthesized and sequence validated by Genscript (NJ, USA).
(§2) The [^3H]GABA competition uptake assay was performed as previously described. A minor change, however, was introduced for uptake in MDCK II cells, in which 100 nM [^3H]GABA was used for a 15 min incubation period at 37 °C instead of 30 nM [^3H]GABA and 3 min incubation. Studies related to the inhibition curves with GABA and BPDBA at hBGT1 were obtained both with and without the presence of 10 μM ATP during the [^3H]GABA uptake assay.
(§3) The [^3H]GABA uptake data was normalized to the percentage of total uptake in the individual experiments in the presence of the lowest compound concentration or no compound present. Data presented is the pooled data of at least three independent experiments with three technical replicates. Concentration–response curves (CRCs) were fitted with GraphPad Prism (version 8.2.1, Yosemite, GraphPad Software, San Diego, CA, USA) by non-linear regression to the sigmoidal concentration response model: Y=Bottom+(Top-Bottom)/1+10^LogIC50-X∗nH where Top is the Top plateau, Bottom is the Bottom plateau, X is the logarithm of the concentration of the compound, LogIC50 is the concentration giving a response halfway between Top and Bottom,and nH is the Hill slope.
(§4) The best fit for CRCs obtained with the [^3H]GABA uptake assay was identified by the extra-sum-of-squares F test (for convenience referred to as F test).

In experiment [5] the target is T5, Alpha1D (Homo sapiens, UniProt P25100).
T5 construct: purchased NIMH Psychoactive Drug Screening Program (PDSP)
The experiment can be described thus: NIMH PDSP radioligand binding, Alpha1D. Particulars: radioligand [3H]prazosine, n=4.

The target of experiment [6] is T6, mBGT1 (Mus musculus, UniProt P31651).
T6 construct: expressed in transfected cells
T6 sequence (P31651 1-614): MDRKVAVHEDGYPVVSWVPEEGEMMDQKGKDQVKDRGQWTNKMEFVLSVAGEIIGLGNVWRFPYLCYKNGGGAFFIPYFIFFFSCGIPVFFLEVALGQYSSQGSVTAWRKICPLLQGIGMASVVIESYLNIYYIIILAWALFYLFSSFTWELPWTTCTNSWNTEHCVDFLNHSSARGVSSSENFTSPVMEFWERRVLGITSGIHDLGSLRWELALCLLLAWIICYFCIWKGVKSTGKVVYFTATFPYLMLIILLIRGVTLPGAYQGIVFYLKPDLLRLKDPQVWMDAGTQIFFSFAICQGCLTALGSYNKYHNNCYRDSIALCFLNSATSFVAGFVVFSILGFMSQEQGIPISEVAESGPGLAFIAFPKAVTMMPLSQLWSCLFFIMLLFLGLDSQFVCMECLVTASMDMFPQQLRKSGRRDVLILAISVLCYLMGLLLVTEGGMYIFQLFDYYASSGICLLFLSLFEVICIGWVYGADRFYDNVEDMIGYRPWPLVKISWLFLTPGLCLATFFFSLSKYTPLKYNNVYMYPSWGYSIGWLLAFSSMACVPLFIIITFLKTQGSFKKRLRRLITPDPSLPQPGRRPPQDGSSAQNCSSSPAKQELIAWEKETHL
Put plainly: [3H]GABA uptake at mBGT1 stably expressed in HEK-293 cells. The class given is cell-based. On the procedure: as §1, §2, §3, §4

The target of experiment [7] is T7, Alpha1A (Homo sapiens, UniProt P35348).
T7 construct: purchased NIMH Psychoactive Drug Screening Program (PDSP)
The experiment can be described thus: NIMH PDSP radioligand binding, Alpha1A. The following applies: radioligand [3H]prazosine, n=4.

The target in experiment [8] is T8, M2 (Homo sapiens, UniProt P08172).
T8 construct: purchased NIMH Psychoactive Drug Screening Program (PDSP)
Put plainly: NIMH PDSP radioligand binding, M2.

Experiment [9] concerns the target T9, D3 (Homo sapiens, UniProt P35462).
T9 construct: purchased NIMH Psychoactive Drug Screening Program (PDSP)
Put plainly: NIMH PDSP radioligand binding, D3. Particulars: radioligand [3H]N-methylspiperone, n=4.

By inhibition is commonly meant the relative decrease from the control value, in per cent. Broadly, the Ki is a measure of affinity in units of concentration, obtained from inhibition or displacement. Lower therefore signals a stronger hold on the target. As a reminder, the IC50 is the midpoint of a concentration-inhibition curve.

Where two headings read alike, the source gives them in different places.

T1 sequence (P28335 33-458, species assumed): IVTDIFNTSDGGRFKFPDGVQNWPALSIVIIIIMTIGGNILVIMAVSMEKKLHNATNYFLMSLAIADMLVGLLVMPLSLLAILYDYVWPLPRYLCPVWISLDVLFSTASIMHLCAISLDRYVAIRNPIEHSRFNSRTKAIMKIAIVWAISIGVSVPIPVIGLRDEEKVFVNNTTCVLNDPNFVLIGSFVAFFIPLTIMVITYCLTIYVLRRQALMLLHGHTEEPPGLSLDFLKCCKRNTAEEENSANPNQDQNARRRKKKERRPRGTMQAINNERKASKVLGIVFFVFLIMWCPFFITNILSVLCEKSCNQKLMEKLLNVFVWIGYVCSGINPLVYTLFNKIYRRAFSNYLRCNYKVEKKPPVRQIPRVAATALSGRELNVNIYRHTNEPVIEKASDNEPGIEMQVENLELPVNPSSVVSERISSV
T3 sequence (P41143 whole entry): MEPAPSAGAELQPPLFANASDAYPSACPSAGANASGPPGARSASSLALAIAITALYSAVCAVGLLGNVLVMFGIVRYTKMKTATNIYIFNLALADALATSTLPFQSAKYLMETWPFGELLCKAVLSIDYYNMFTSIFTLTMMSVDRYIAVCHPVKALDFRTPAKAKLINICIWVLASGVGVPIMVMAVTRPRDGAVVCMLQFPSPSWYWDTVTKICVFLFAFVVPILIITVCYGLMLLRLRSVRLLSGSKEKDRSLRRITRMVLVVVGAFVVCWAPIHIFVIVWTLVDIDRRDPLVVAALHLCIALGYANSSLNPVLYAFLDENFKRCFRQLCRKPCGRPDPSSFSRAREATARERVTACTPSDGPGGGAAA
T9 sequence (P35462 whole entry): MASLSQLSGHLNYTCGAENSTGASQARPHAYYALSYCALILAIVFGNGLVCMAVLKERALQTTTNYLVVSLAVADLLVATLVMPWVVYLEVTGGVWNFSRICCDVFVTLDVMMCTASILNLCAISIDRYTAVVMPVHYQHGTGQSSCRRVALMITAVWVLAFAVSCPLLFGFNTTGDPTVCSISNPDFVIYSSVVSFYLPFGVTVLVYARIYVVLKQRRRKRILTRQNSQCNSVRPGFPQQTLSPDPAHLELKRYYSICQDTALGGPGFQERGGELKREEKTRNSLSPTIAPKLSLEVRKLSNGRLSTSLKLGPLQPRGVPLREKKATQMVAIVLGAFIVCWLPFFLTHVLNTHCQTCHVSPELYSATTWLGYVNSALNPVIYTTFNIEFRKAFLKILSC
T5 sequence (P25100 whole entry): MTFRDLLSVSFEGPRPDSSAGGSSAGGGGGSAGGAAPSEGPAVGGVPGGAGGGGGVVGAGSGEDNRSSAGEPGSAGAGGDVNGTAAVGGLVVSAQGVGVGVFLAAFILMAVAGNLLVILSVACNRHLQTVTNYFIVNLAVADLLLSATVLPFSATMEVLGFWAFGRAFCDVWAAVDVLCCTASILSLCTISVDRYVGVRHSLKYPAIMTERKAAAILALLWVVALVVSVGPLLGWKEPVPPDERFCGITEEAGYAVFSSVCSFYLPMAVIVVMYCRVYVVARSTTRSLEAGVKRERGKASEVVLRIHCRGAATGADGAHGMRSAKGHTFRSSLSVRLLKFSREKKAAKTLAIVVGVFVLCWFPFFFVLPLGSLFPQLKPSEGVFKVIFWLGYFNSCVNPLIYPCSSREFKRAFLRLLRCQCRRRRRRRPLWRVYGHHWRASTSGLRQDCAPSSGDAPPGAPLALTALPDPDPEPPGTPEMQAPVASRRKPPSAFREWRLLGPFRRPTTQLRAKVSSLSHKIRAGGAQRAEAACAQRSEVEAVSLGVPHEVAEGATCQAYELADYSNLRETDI
T7 sequence (P35348 whole entry): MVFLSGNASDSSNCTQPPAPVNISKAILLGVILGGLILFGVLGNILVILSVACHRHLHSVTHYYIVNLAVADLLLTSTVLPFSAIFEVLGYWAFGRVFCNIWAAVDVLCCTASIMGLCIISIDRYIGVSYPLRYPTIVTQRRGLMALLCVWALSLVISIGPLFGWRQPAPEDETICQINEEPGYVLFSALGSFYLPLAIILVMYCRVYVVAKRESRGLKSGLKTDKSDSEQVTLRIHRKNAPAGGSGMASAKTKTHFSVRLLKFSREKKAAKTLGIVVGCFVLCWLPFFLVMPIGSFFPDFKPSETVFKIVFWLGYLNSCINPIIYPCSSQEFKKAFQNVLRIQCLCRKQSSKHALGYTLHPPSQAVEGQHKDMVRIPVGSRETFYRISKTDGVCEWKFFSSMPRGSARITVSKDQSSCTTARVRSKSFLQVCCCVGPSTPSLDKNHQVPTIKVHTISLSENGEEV
T8 sequence (P08172 whole entry): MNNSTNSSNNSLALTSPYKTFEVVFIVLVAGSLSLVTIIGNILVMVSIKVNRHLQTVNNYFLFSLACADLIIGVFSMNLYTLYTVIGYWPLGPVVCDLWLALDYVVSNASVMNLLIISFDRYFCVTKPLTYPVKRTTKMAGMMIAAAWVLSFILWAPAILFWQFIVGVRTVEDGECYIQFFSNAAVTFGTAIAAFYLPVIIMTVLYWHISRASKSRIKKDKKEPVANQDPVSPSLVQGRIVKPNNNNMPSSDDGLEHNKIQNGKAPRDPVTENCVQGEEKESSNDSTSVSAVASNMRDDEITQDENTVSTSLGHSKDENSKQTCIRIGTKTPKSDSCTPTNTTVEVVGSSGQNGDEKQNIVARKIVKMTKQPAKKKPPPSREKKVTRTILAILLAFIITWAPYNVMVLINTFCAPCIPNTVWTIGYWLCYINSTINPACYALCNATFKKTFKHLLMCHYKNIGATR
T2 sequence (P08908 whole entry): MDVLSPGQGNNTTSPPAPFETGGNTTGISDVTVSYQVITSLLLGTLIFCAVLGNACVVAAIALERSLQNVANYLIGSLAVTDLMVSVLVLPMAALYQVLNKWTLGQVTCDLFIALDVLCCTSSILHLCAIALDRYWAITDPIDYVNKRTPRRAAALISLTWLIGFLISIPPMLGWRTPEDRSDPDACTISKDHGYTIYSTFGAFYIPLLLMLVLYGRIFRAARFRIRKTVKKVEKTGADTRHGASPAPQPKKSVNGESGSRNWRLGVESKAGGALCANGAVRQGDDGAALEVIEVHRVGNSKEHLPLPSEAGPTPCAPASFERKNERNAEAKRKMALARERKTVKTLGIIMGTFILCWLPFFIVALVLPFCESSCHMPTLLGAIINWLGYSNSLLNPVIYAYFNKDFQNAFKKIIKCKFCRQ

As for `Cc1ccsc1C(=CCCN(C)[C@H]1CCCC[C@H]1C(=O)O)c1sccc1C` [SBV2-114, (1R,2S)-2-((4,4-bis(3-methylthiophen-2-yl)but-3-en-yl)(methyl)amino)cyclohexanecarboxylic acid], the inhibition at 10 µM in [1] (10 μM, n=4) was 77.5%; in experiment [2], -7.9%; in experiment [3] it was 36.6%; in experiment [5], -4.7%; in [7], 0.1%; in experiment [8], -1.9%. Moreover, in experiment [9], the inhibition at 10 µM worked out at 27.8%. Moreover, the Ki in experiment [1] (full curve) is 670 nM. The molecule further came in with a Frac in experiment [4] (biphasic fit, CHO) of 0.09. Moreover, the IC50 in experiment [4] (biphasic fit, CHO, read-out: IC50, high affinity component) was 2.09 µM; in experiment [4] (read-out: IC50, low affinity component, biphasic fit, CHO), 603 µM; in [6], 3.8 µM; in experiment [6] (read-out: IC50, low affinity component (high IC50), biphasic fit, 30 nM [3H]GABA, 3 min, HEK-293), 408 µM. In addition, the Fit entry in experiment [4] (preferred model) is given as “Biphasic”; in [6] (preferred model, extra-sum-of-squares F test, N=5) it was “Biphasic”. Further, the “% inhibition (Frac value) at the low IC50” value in experiment [6] (biphasic fit) is given as 45%.

Values taken from publication PMC7297817, “Pharmacological Characterization of a Betaine/GABA Transporter 1 (BGT1) Inhibitor Displaying an Unusual Biphasic Inhibition Profile and Anti-seizure Effects” (Neurochemical Research, 2020).
